Measured values published in patent publication US9073906B2, “Sulfamide derivative having an adamantyl group and its pharmaceutically acceptable salt” (KOREA RESEARCH INSTITUTE OF CHEMICAL TECHNOLOGY, priority 2011, dated 2015).

How the values were obtained:
human 11β-HSD1 = human 11β-HSD1 (Homo sapiens (Human), UniProt P28845); test: HTRF cortisol assay in 11β-HSD1 overexpressing CHO cells; format: cell-based; details: human 11β-HSD1 overexpressing CHO cells, 160 nM cortisone, 3 hr at 37° C., read-out: IC50(nM) to 11β-HSD-1
Sequence of human 11β-HSD1 (P28845 whole entry): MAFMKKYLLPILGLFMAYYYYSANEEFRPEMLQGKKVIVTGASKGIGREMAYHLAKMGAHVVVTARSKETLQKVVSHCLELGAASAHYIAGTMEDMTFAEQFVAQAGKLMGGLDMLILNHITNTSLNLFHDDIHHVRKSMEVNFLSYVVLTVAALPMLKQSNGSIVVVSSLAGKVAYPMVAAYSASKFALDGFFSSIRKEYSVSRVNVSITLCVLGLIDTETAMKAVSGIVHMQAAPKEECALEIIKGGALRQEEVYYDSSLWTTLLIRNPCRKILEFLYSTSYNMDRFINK
Description: The full-length cDNA molecule coding for human or mouse 11β-HSD1 was inserted into pcDNA (Promega) as mammalian expression vectors and transformed into CHO cells for 5 hr using Lipofectamine plus (Invitrogen) in accordance with manufacturer's manual, followed by stabilization for 48 hr. The CHO cells were incubated with 0.8 μg/ml puromycin (Sigma) once every three days for two weeks to obtain human or mouse 11β-HSD1 overexpressing cells. The cells were grown and frozen, and thawed for enzyme inhibition tests.
The in vitro inhibitory activities of the novel compounds to human 11β-HSD1 were evaluated in accordance with homogenous time-resolved fluorescence (HTRF).
The human or mouse 11β-HSD1 overexpressing cells were subcultured at the number of 2.5×10^4 cells in 96-well plate and stabilized for 24 hr. […] Then, samples of the medium (10 μl) were transferred to 384-well plate and the amounts of cortisol produced were measured using a cortisol kit (Cisbio international) in accordance with manufacturer's instruction. […] Delta F value=(Ratio of compounds−Ratio of negative)/Ratio of negative×100 2. Normalized value=Delta F value of compounds−Delta F value of control 3. % inhibition=Normalized value of compounds/Normalized value of background×100 4.

human 11β-HSD-2 = human 11β-HSD-2 (Homo sapiens (Human), UniProt P80365); test: HTRF analysis of inhibition of 11β-HSD-2; format: cell-based; details: human 11β-HSD-2, HTRF
Sequence of human 11β-HSD-2 (P80365 whole entry): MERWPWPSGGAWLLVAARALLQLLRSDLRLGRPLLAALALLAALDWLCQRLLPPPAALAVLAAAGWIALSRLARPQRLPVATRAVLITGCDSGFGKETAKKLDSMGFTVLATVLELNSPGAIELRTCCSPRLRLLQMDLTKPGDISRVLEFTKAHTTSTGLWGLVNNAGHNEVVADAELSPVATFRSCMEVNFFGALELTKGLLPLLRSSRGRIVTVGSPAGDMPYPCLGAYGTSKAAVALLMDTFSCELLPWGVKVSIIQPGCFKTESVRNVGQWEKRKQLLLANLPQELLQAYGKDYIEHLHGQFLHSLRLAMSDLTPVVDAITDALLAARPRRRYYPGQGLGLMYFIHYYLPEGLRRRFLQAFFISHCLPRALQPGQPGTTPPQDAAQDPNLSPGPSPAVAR

Structure (SMILES)	IC50 (human 11β-HSD1)	IC50 (human 11β-HSD-2)
O=C(CN1CCCN(c2ccccc2)S1(=O)=O)NC1C2CC3CC(C2)CC1C3 (centres unmarked) [Compound 2, N-(adamantan-2-yl)-(1,1-dioxido-6-phenyl-1,2,6-thiadiazinan-2-yl)acetamide]	12 nM	> 10000 nM
CC(C)(C)OC(=O)N1CCCN(CC(=O)NC2C3CC4CC(C3)CC2C4)S1(=O)=O (centres unmarked) [Compound 3, tert-butyl 6-(2-(adamantan-2-ylamino)-2-oxoethyl)-1,2,6-thiadiazinan-2-carboxylate 1,1-dioxide]	363 nM	> 10000 nM
O=C(CN1CCCN(Cc2ccccc2)S1(=O)=O)NC1C2CC3CC(C2)CC1C3 (centres unmarked) [Compound 5, N-(adamantan-2-yl)-2-(6-benzyl-1,1-dioxido-1,2,6-thiadiazinan-2-yl)acetamide]	360 nM	> 10000 nM
O=C(CN1CCCN(Cc2ccccc2F)S1(=O)=O)NC1C2CC3CC(C2)CC1C3 (centres unmarked) [Compound 14, N-(adamantan-2-yl)-2-(6-(2-fluorobenzyl)-1,1-dioxido-1,2,6-thiadiazinan-2-yl)acetamide]	1660 nM	> 10000 nM
Cc1ccc(N2CCCN(CC(=O)NC3C4CC5CC(C4)CC3C5)S2(=O)=O)cc1 (centres unmarked) [Compound 24, N-(adamantan-2-yl)-2-(1,1-dioxido-6-(p-tolyl)-1,2,6-thiadiazinan-2-yl)acetamide]	3370 nM	> 10000 nM
NC(=O)C12CC3CC(C1)C(NC(=O)CN1CCCN(c4ccc(F)cc4)S1(=O)=O)C(C3)C2 (centres unmarked) [Compound 44, 4-(2-(6-(4-fluorophenyl)-1,1-dioxido-1,2,6-thiadiazinan-2-yl)acetamido)adamantan-1-carboxamide]	79 nM	> 10000 nM
NC(=O)C12CC3CC(C1)C(NC(=O)CN1CCCN(c4ccccc4F)S1(=O)=O)C(C3)C2 (centres unmarked) [Compound 59, 4-(2-(6-(2-fluorophenyl)-1,1-dioxido-1,2,6-thiadiazinan-2-yl)-acetamido)adamantan-1-carboxamide]	14 nM	> 10000 nM
NC(=O)C12CC3CC(C1)C(NC(=O)CN1CCCN(c4ccccc4)S1(=O)=O)C(C3)C2 (centres unmarked) [Compound 60, 4-(2-(1,1-dioxido-6-phenyl-1,2,6-thiadiazinan-2-yl)acetamido)adamantan-1-carboxamide]	17 nM	> 10000 nM
NC(=O)C12CC3CC(C1)C(NC(=O)CN1CCCN(c4cccc(F)c4)S1(=O)=O)C(C3)C2 (centres unmarked) [Compound 69, 4-(2-(6-(3-fluorophenyl)-1,1-dioxido-1,2,6-thiadiazinan-2-yl)acetamido)adamantan-1-carboxamide]	3 nM	> 10000 nM
NC(=O)C12CC3CC(C1)C(NC(=O)CN1CCCN(c4c(Cl)cc(Cl)cc4Cl)S1(=O)=O)C(C3)C2 (centres unmarked) [Compound 88, 4-(2-(1,1-dioxido-6-(2,4,6-trichlorophenyl)-1,2,6-thiadiazinan-2-yl)acetamido)adamantan-1-carboxamide]	0.2 nM	> 10000 nM
NC(=O)C12CC3CC(C1)C(NC(=O)CN1CCCN(c4c(F)cc(F)cc4F)S1(=O)=O)C(C3)C2 (centres unmarked) [Compound 89, 4-(2-(1,1-dioxido-6-(2,4,6-trifluorophenyl)-1,2,6-thiadiazinan-2-yl)acetamido)adamantan-1-carboxamide]	20 nM	> 10000 nM
NC(=O)C12CC3CC(C1)C(NC(=O)CN1CCCCN(c4c(Cl)cc(Cl)cc4Cl)S1(=O)=O)C(C3)C2 (centres unmarked) [Compound 122, 4-(2-(1,1-dioxido-7-(2,4,6-trichlorophenyl)-1,2,7-thiadiazepane-2-yl)acetamido) adamantan-1-carboxamide]	0.4 nM	> 10000 nM
CN(CC(=O)NC1C2CC3CC1CC(C(N)=O)(C3)C2)S(=O)(=O)N(C)c1c(Cl)cc(Cl)cc1Cl (centres unmarked) [Compound 123, 4-(2-(methyl(N-methyl-N-(2,4,6-trichlorophenyl)sulfa-moyl)amino)acetamido) adamantan-1-carboxamide]	0.8 nM	> 10000 nM
NC(=O)C12CC3CC(C1)C(NC(=O)CN1CCN(c4c(Cl)cc(Cl)cc4Cl)S1(=O)=O)C(C3)C2 (centres unmarked) [Compound 124, 4-(2-(1,1-dioxido-5-(2,4,6-trichlorophenyl)-1,2,5-thiadiazolidin-2-yl)acetamido) adamantan-1-carboxamide]	187 nM	> 10000 nM
CC1CCN(c2c(Cl)cc(Cl)cc2Cl)S(=O)(=O)N1CC(=O)NC1C2CC3CC1CC(C(N)=O)(C3)C2 (centres unmarked) [Compound 128, 4-(2-(3-methyl-1,1-dioxido-6-(2,4,6-trichlorophenyl)-1,2,6-thiadiazinan-2-yl)acetamido) adamantan-1-carboxamide]	0.1 nM	> 10000 nM
CC1CN(CC(=O)NC2C3CC4CC2CC(C(N)=O)(C4)C3)S(=O)(=O)N(c2c(Cl)cc(Cl)cc2Cl)C1 (centres unmarked) [Compound 156, 4-(2-(4-methyl-1,1-dioxido-6-(2,4,6-trichlorophenyl)-1,2,6-thiadiazinan-2-yl)acetamido)adamantan-1-carboxamide]	1 nM	> 10000 nM
NC(=O)[C@]12CC3CC(C1)[C@@H](NC(=O)CN1CC(F)(F)CN(c4c(Cl)cc(Cl)cc4Cl)S1(=O)=O)C(C3)C2 [Compound 172, 4-(2-(4,4-difluoro-1,1-dioxido-6-(2,4,6-trichlorophenyl)-1,2,6-thiadiazinan-2-yl)acetamido)adamantan-1-carboxamide (E form)]		> 10000 nM
C=C1CN(CC(=O)NC2C3CC4CC2CC(C(N)=O)(C4)C3)S(=O)(=O)N(c2c(Cl)cc(Cl)cc2Cl)C1 (centres unmarked) [Compound 175, 4-(2-(4-methylene-1,1-dioxido-6-(2,4,6-trichlorophenyl)-1,2,6-thiadiazinan-2-yl)acetamido)adamantan-1-carboxamide]	14 nM	> 10000 nM
NC(=O)C12CC3CC(C1)C(NC(=O)CN1CC4(CC4)CN(c4c(Cl)cc(Cl)cc4Cl)S1(=O)=O)C(C3)C2 (centres unmarked) [Compound 176, 4-(2-(6,6-dioxido-7-(2,4,6-trichlorophenyl)-6-thia-5,7-diazaspiro[2,5]octane-5-yl)acetamido)adamantan-1-carboxamide]	5 nM	> 10000 nM
CC1(C)CN(CC(=O)NC2C3CC4CC2CC(C(N)=O)(C4)C3)S(=O)(=O)N(c2c(Cl)cc(Cl)cc2Cl)C1 (centres unmarked) [Compound 177, 4-(2-(4,4-dimethyl-1,1-dioxido-6-(2,4,6-trichlorophenyl)-1,2,6-thiadiazinan-2-yl)acetamido)adamantan-1-carboxamide]	5 nM	> 10000 nM
CC1CN(CC(=O)NC2C3CC4CC2CC(C(N)=O)(C4)C3)S(=O)(=O)N(c2c(Cl)cc(C(F)(F)F)cc2Cl)C1 (centres unmarked) [Compound 183, (E) 4-(2-(6-(2,6-dichloro-4-(trifluoromethyl)phenyl)-4-methyl-1,1-dioxido-1,2,6-thiadiazinan-2-yl)acetamido)adamantan-1-carboxamide]	4.8 nM	> 10000 nM
C[C@H]1CN(CC(=O)NC2C3CC4CC2CC(C(N)=O)(C4)C3)S(=O)(=O)N(c2c(Cl)cc(C(F)(F)F)cc2Cl)C1 (stereo partly drawn) [Compound 195, 4-(2-((S)-6-(2,6-dichloro-4-(trifluoromethyl)phen-yl)-4-methyl-1,1-dioxido-1,2,6-thiadiazinan-2-yl)acetamido)adamantan-1-carboxamide]		> 10000 nM
C[C@@H]1CN(CC(=O)NC2C3CC4CC2CC(C(N)=O)(C4)C3)S(=O)(=O)N(c2c(Cl)cc(C(F)(F)F)cc2Cl)C1 (stereo partly drawn) [Compound 196, 4-(2-((R)-6-(2,6-dichloro-4-(trifluoromethyl)phen-yl)-4-methyl-1,1-dioxido-1,2,6-thiadiazinan-2-yl)acetamido)adamantan-1-carboxamide]	1.3 nM	> 10000 nM
